Assay results from patent US20070142395A1, “Treatment of sexual dysfunction with 1-[3-[4-(3-chlorophenyl)-1-piperazinyl]propyl]-5-methoxy-3,4-dihydro-2(1H)-quinolone or salt thereof” (Vela Pharmaceuticals, Inc., priority 2005, published 2007).

Test system: depressed patients
Assay: Comparison of change in CSFQ score (difference from placebo) with bupropion XL and escitalopram, FIG. 1
Format: in vivo, Humans
Details: overall and virtually every CSFQ subscale, bupropion XL data from Clayton et al.
Experimental: FIG. 1 depicts the difference in the Changes in Sexual Function Questionaire (CSFQ) scores (difference from placebo) from baseline to week 8 for OPC-14523, buproprion XL and escitalopram. The data for bupropion XL and escitalopram were obtained from Clayton et al., 45th Annual NCDEU Meeting, Session 1-21, Boca Raton, Fla., June 6-9, 2005. For the Clayton et al. data, N=273 (placebo), 276 (bupropion XL, 300-400 mg) and 281 (escitalopram, 10-20 mg).
There is evidence that bupropion reduces the sexual dysfunction in depressed patients, and may be useful as a treatment for sexual dysfunction. Therefore, the data of OPC-14523 effect on sexual dysfunction discussed above were compared to data on the effects of bupropion XL and escitalopram on sexual function reported by Clayton et al. (45th Annual NCDEU Meeting, Boca Raton, Fla. June 6-9, 2005).
The comparison was based on the change in CSFQ score from baseline to week 8. The changes were assessed by subtracting the placebo score from the treated score at baseline and at week 8, then taking the difference of these two numbers.

COc1cccc2c1CCC(=O)N2CCCN1CCN(c2cccc(Cl)c2)CC1 [OPC-14523, 1-[3-[4-(3-chlorophenyl)-1-piperazinyl]propyl]-5-methoxy-3,4-dihydro-2(1H)-quinolone]
change in CSFQ score from baseline to week 8 (difference from placebo), compared to bupropion XL: larger improvement
